One assay concerns the target T1, human CD22 (Homo sapiens, UniProt P20273).
T1 construct: Fc (human CD22-Fc fusion); purchased R&D Systems AV11968-050
As to the kind of experiment: SPR binding of synthetic Siglec ligands to human CD22 ectodomain (Biacore 8K+). The settings on record: for Kd: SPR, alkyne-terminating precursors of the PFP linkers, read-out: Human Siglec-2 Binding Affinity; for Human Siglec-2 Binding Affinity: grade in words for the conjugatable Siglec ligand-linker. Here is the method:
(§1) The following ligands were evaluated for mouse and human CD22 binding: 1) BPC-Neu5Gc PEG (Cpd. No. 26463), 2) BPC-Neu5Gc GAL (Cpd. No. 26339), 3) MPB-Neu5Ac PEG (Cpd. No. 26334), 4) MPB-Neu5Ac GAL (Cpd. No. 26409), 5) Neu5Gc PEG (Cpd. No. 26591). All tested compounds are alkyne-terminating precursors of PFP-terminating, conjugatable Siglec Linker structures used in conjugates in the following examples.
(§2) Binding assays for synthetic CD22 ligand binding to CD22 receptor ectodomain were run on a Biacore 8K+ instrument (Cytiva). Surface preparation for CD22 conjugates binding to human or mouse CD22 protein consisted of two steps, covalent immobilization of streptavidin followed by capture of Avi-tagged and biotinylated human CD22-Fc fusion (R&D Systems, Cat #AV11968-050) and a mono-Fc fusion of mouse CD22. Using standard amine coupling protocols, Streptavidin (Invitrogen, Cat #: 434301) was immobilized to a Cytiva CM5 chip (Cytiva, Cat #BR100530) by injecting at 100 ug/mL in Sodium Acetate, pH 4.5 (Cytiva, Cat #BR100350) on both flow cells, yielding a final response of 2500 RU. Capture of biotinylated mono Fc human CD22 was performed on channels 1-4 and mouse CD22 on channels 5-8 on the active flow cell (2) and the reference flow cell (1) was kept as unmodified streptavidin to account for any non-specific binding. Human CD22 or mouse CD22 (mono-Fc fusion, 5 μg/mL) was injected on the active flow cell (2) for 90 seconds at 5 μL/min, yielding about 210 RU of captured constructs.
(§3) Binding experiments of Siglec-ligand conjugated proteins were performed on the surfaces prepared above in HBS-EP+ (10 mM HEPES, 150 mM NaCl, 3 mM EDTA, 0.05% Tween-20, pH 7.5) as the running buffer. Conjugates were serially diluted 1:1 in running buffer from 1 μM to 31.25 nM and injected over both the reference and active flow cells for 90 seconds at 30 μL/min. The conjugates were then allowed to dissociate from the surface for 300 seconds. No regeneration was required as the conjugates completely dissociated from the surface after 30 seconds.

The target of the next assay is T2, mouse CD22 (Mus musculus, UniProt P35329).
T2 construct: synthetic Siglec ligands for recombinant human and mouse CD22 ectodomains
T2 sequence (P35329 22-708 limits assumed): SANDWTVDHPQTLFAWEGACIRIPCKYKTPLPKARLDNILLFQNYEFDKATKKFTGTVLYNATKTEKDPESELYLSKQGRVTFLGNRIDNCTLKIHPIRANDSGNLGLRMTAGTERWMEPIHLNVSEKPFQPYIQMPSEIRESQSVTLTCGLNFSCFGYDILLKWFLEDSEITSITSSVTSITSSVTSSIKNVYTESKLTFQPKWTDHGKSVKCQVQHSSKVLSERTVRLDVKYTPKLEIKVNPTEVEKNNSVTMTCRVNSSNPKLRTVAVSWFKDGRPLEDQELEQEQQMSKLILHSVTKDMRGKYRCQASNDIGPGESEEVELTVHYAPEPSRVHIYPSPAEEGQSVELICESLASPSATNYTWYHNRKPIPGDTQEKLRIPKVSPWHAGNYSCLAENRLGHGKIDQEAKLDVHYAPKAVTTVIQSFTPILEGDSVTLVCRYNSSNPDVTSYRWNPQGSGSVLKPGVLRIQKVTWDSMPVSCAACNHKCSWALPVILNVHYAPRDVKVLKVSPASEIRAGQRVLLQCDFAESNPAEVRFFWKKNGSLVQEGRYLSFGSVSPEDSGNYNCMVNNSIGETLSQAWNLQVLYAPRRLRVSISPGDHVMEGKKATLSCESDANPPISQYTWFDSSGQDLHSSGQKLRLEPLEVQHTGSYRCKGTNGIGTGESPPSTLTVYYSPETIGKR
As to the kind of experiment: SPR binding of synthetic Siglec ligands to mouse CD22 ectodomain (Biacore 8K+). The settings on record: for Kd: SPR, alkyne-terminating precursors of the PFP linkers, read-out: Mouse Siglec-2 Binding Affinity; for Mouse Siglec-2 Binding Affinity: grade in words for the conjugatable Siglec ligand-linker. Here is the method: as §1, §2, §3

T1 sequence (P20273 20-687 limits assumed): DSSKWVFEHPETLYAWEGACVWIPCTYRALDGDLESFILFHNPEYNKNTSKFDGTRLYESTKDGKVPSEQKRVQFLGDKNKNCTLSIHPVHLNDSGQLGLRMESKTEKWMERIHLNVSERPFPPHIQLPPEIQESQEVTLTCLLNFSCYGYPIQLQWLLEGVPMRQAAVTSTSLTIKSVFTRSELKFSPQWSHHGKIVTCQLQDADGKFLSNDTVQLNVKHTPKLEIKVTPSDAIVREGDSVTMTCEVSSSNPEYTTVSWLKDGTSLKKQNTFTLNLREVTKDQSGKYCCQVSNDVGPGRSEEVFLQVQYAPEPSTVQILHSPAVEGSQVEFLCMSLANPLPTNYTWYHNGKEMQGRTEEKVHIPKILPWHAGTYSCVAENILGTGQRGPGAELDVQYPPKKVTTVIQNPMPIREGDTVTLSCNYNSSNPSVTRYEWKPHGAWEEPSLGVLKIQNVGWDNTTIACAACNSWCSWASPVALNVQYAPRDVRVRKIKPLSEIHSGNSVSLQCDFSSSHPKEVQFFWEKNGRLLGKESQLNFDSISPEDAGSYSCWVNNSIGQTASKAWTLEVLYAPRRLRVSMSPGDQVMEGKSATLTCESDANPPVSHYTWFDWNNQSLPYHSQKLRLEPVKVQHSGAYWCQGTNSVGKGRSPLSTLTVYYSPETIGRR

For `C#CCCO[C@@H]1O[C@H](CO[C@]2(C(=O)O)C[C@H](O)[C@@H](NC(=O)CO)[C@H]([C@H](O)[C@H](O)CNC(=O)Cc3ccc(-c4ccccc4)cc3)O2)[C@H](O)[C@H](O)[C@H]1O`, the Kd is 2500 nM on human CD22 and 17200 nM on mouse CD22.

`O=C(CCOCCOCCn1cc(CCO[C@@H]2O[C@H](CO[C@]3(C(=O)O)C[C@H](O)[C@@H](NC(=O)CO)[C@H]([C@H](O)[C@H](O)CNC(=O)Cc4ccc(-c5ccccc5)cc4)O3)[C@H](O)[C@H](O)[C@H]2O)nn1)NCCCCC(NC(=O)CCCNC(=O)CCOCCOCCn1cc(CCO[C@@H]2O[C@H](CO[C@]3(C(=O)O)C[C@H](O)[C@@H](NC(=O)CO)[C@H]([C@H](O)[C@H](O)CNC(=O)Cc4ccc(-c5ccccc5)cc4)O3)[C@H](O)[C@H](O)[C@H]2O)nn1)C(=O)NCCOCCOCCOCCOCCC(=O)Oc1c(F)c(F)c(F)c(F)c1F` (mixture of isomers) [Cpd. No. 26416]: the “Human Siglec-2 Binding Affinity” value on human CD22 is on record as “Strong”. Further, the “Mouse Siglec-2 Binding Affinity” value on mouse CD22 was “Strong”.

Turning to `CC(=O)N[C@H]1[C@H]([C@H](O)[C@H](O)CNC(=O)c2cccc(Oc3ccccc3)c2)O[C@@](OC[C@H]2O[C@@H](OCCc3cn(CCOCCOCCC(=O)NCCCC[C@H](NC(=O)CCCNC(=O)CCOCCOCCn4cc(CCO[C@@H]5O[C@H](CO[C@]6(C(=O)O)C[C@H](O)[C@@H](NC(C)=O)[C@H]([C@H](O)[C@H](O)CNC(=O)c7cccc(Oc8ccccc8)c7)O6)[C@H](O)[C@H](O)[C@H]5O)nn4)C(=O)NCCOCCOCCOCCOCCC(=O)Oc4c(F)c(F)c(F)c(F)c4F)nn3)[C@H](O)[C@@H](O)[C@H]2O)(C(=O)O)C[C@@H]1O` (mixture of isomers) [Cpd. No. 26468], the “Human Siglec-2 Binding Affinity” value on human CD22 is listed as “Strong”. Moreover, the “Mouse Siglec-2 Binding Affinity” value on mouse CD22 is on record as “V. weak”.

For `CC(=O)N[C@H]1[C@H]([C@H](O)[C@H](O)CNC(=O)c2cccc(Oc3ccccc3)c2)O[C@@](OCCOCCOCc2cn(CCOCCOCCOCCOCCC(=O)Oc3c(F)c(F)c(F)c(F)c3F)nn2)(C(=O)O)C[C@@H]1O` [Cpd. No. 24836, (2R,4S,5R,6R)-5-acetamido-6-((1R,2R)-1,2-dihydroxy-3-(3-phenoxybenzamido)propyl)-4-hydroxy-2-(2-(2-((1-(15-oxo-15-(perfluorophenoxy)-3,6,9,12-tetraoxapentadecyl)-1H-1,2,3-triazol-4-yl)methoxy)ethoxy)ethoxy)tetrahydro-2H-pyran-2-carboxylic acid], at human CD22, the “Human Siglec-2 Binding Affinity” value is reported as “Strong”. Besides, the “Mouse Siglec-2 Binding Affinity” value on mouse CD22 is reported as “V. weak”.

Consider `CC(=O)N[C@H]1[C@H]([C@H](O)[C@H](O)CNC(=O)c2cccc(Oc3ccccc3)c2)O[C@@](OC[C@H]2O[C@@H](OCCc3cn(CCOCCOCCOCCOCCC(=O)Oc4c(F)c(F)c(F)c(F)c4F)nn3)[C@H](O)[C@@H](O)[C@H]2O)(C(=O)O)C[C@@H]1O` [Cpd. No. 24906, (2R,4S,5R,6R)-5-acetamido-6-((1R,2R)-1,2-dihydroxy-3-(3-phenoxybenzamido)propyl)-4-hydroxy-2-(((2R,3R,4S,5R,6R)-3,4,5-trihydroxy-6-(2-(1-(15-oxo-15-(perfluorophenoxy)-3,6,9,12-tetraoxapentadecyl)-1H-1,2,3-triazol-4-yl)ethoxy)tetrahydro-2H-pyran-2-yl)methoxy)tetrahydro-2H-pyran-2-carboxylic acid], for which the “Human Siglec-2 Binding Affinity” value on human CD22 was “Strong”. The “Mouse Siglec-2 Binding Affinity” value on mouse CD22 is listed as “V. weak”.

With `O=C(Cc1ccc(-c2ccccc2)cc1)NC[C@@H](O)[C@@H](O)[C@@H]1O[C@@](OCCOCCOCc2cn(CCOCCOCCOCCOCCC(=O)Oc3c(F)c(F)c(F)c(F)c3F)nn2)(C(=O)O)C[C@H](O)[C@H]1NC(=O)CO` [Cpd. No. 26288, (2R,4S,5R,6R)-6-((1R,2R)-3-(2-([1,1′-biphenyl]-4-yl)acetamido)-1,2-dihydroxypropyl)-4-hydroxy-5-(2-hydroxyacetamido)-2-(2-(2-((1-(15-oxo-15-(perfluorophenoxy)-3,6,9,12-tetraoxapentadecyl)-1H-1,2,3-triazol-4-yl)methoxy)ethoxy)ethoxy)tetrahydro-2H-pyran-2-carboxylic acid], the “Human Siglec-2 Binding Affinity” value at human CD22 is listed as “Strong”. Further, at mouse CD22, the “Mouse Siglec-2 Binding Affinity” value is “Strong”.

Regarding `CC(=O)N[C@H]1[C@H]([C@H](O)[C@H](O)CNC(=O)c2cccc(Oc3ccccc3)c2)O[C@@](OCCOCc2cn(CCOCCOCCC(=O)NCCCC[C@H](NC(=O)CCCNC(=O)CCOCCOCCn3cc(COCCO[C@]4(C(=O)O)C[C@H](O)[C@@H](NC(C)=O)[C@H]([C@H](O)[C@H](O)CNC(=O)c5cccc(Oc6ccccc6)c5)O4)nn3)C(=O)NCCOCCOCCOCCOCCC(=O)Oc3c(F)c(F)c(F)c(F)c3F)nn2)(C(=O)O)C[C@@H]1O` [Cpd. No. 26289, (2R,2′R,4S,4′S,5R,5′R,6R,6′R)-2,2′-(((((((S)-9,14,22-trioxo-16-((15-oxo-15-(perfluorophenoxy)-3,6,9,12-tetraoxapentadecyl)carbamoyl)-3,6,25,28-tetraoxa-10,15,21-triazatriacontane-1,30-diyl)bis(1H-1,2,3-triazole-1,4-diyl))bis(methylene))bis(oxy))bis(ethane-2,1-diyl))bis(oxy))bis(5-acetamido-6-((1R,2R)-1,2-dihydroxy-3-(3-phenoxybenzamido)propyl)-4-hydroxytetrahydro-2H-pyran-2-carboxylic acid)], at human CD22, the “Human Siglec-2 Binding Affinity” value is “Strong”. On mouse CD22, the “Mouse Siglec-2 Binding Affinity” value is on record as “V. weak”.

`C#CCOCCOCCO[C@]1(C(=O)O)C[C@H](O)[C@@H](NC(C)=O)[C@H]([C@H](O)[C@H](O)CNC(=O)c2cccc(Oc3ccccc3)c2)O1` [Cpd. No. 26334, (2R,4S,5R,6R)-5-acetamido-6-((1R,2R)-1,2-dihydroxy-3-(3-phenoxybenzamido)propyl)-4-hydroxy-2-(2-(2-(prop-2-yn-1-yloxy)ethoxy)ethoxy)tetrahydro-2H-pyran-2-carboxylic acid]: the Kd at human CD22 is 930 nM; on mouse CD22 it was > 100000 nM.

For the compound `C#CCCO[C@@H]1O[C@H](CO[C@]2(C(=O)O)C[C@H](O)[C@@H](NC(C)=O)[C@H]([C@H](O)[C@H](O)CNC(=O)c3cccc(Oc4ccccc4)c3)O2)[C@H](O)[C@H](O)[C@H]1O` [Cpd. No. 26409, (2R,4S,5R,6R)-5-acetamido-2-(((2R,3R,4S,5R,6R)-6-(but-3-yn-1-yloxy)-3,4,5-trihydroxytetrahydro-2H-pyran-2-yl)methoxy)-6-((1R,2R)-1,2-dihydroxy-3-(3-phenoxybenzamido)propyl)-4-hydroxytetrahydro-2H-pyran-2-carboxylic acid], the Kd was 1000 nM at human CD22 and > 100000 nM on mouse CD22.

As to `O=C(Cc1ccc(-c2ccccc2)cc1)NC[C@@H](O)[C@@H](O)[C@@H]1O[C@@](OC[C@H]2O[C@@H](OCCc3cn(CCOCCOCCOCCOCCC(=O)Oc4c(F)c(F)c(F)c(F)c4F)nn3)[C@H](O)[C@@H](O)[C@H]2O)(C(=O)O)C[C@H](O)[C@H]1NC(=O)CO` [Cpd. No. 26415, (2R,4S,5R,6R)-6-((1R,2R)-3-(2-([1,1′-biphenyl]-4-yl)acetamido)-1,2-dihydroxypropyl)-4-hydroxy-5-(2-hydroxyacetamido)-2-(((2R,3R,4S,5R,6R)-3,4,5-trihydroxy-6-(2-(1-(15-oxo-15-(perfluorophenoxy)-3,6,9,12-tetraoxapentadecyl)-1H-1,2,3-triazol-4-yl)ethoxy)tetrahydro-2H-pyran-2-yl)methoxy)tetrahydro-2H-pyran-2-carboxylic acid], the “Human Siglec-2 Binding Affinity” value at human CD22 is on record as “Strong”. In addition, the “Mouse Siglec-2 Binding Affinity” value on mouse CD22 was “Strong”.

The values are drawn from patent US20240238422A1 (Osprey Biopharmaceuticals, Inc., priority 2021, published 2024).
